From ChEMBL document CHEMBL1140009, “Synthesis, determination of stereochemistry, and evaluation of new bisindole alkaloids from the myxomycete Arcyria ferruginea: an approach for Wnt signal inhibitor” (Bioorg Med Chem Lett, 2007)

Test system: Cancer cell lines
Test: Inhibition of Wnt signal in cancer cells by luciferase reporter gene assay
Format: cell-based
Settings: Homo sapiens

O=C1NC(=O)c2c1c1c3ccc(O)cc3[nH]c1c1[nH]c3cc(O)ccc3c21
Activity: Dose-dependent effect

O=C1NC(=O)[C@@H](c2c[nH]c3cc(O)ccc23)[C@H]1c1c[nH]c2cc(O)ccc12
Activity: Dose-dependent effect
